Reference: PubChem BioAssay AID330 (DTP/NCI, 2004)
“And” between values parts separate entries of the source, which are not always exact repeats. Equal values may be shown once. Toxic doses and inconclusive results are not listed. The calls were made as follows: active = survival T/C of 150% or more; inactive = T/C below 125% in these data.

Test system: P388 leukemia ip, CD2F1 mice, survival T/C
Experiment: NCI In Vivo Anticancer Drug Screen. Data for tumor model P388 Leukemia (intraperitoneal) in CD2F1 (CDF1) mice
Conditions: endpoint: median survival time, higher = longer survival
In short: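 Mice carrying the transplanted tumor received test compound or vehicle. Survival was recorded in each group, and the value is the treated-group measurement divided by that of the vehicle-treated control group.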

[1] = dose: 50.0 mg/kg/injection, schedule: Q01DX009 (ip), vehicle: saline with Tween-80
[2] = dose: 100.0 mg/kg/injection, schedule: Q01DX009 (ip), vehicle: saline with Tween-80
[3] = dose: 200.0 mg/kg/injection, schedule: Q01DX009 (ip), vehicle: saline with Tween-80
[4] = dose: 60.0 mg/kg/injection, schedule: Q01DX005 (ip), vehicle: Klucel (hydroxypropylcellulose) (HPC)
[5] = dose: 120.0 mg/kg/injection, schedule: Q01DX005 (ip), vehicle: Klucel (hydroxypropylcellulose) (HPC)
[6] = dose: 12.5 mg/kg/injection, schedule: Q01DX009 (ip), vehicle: distilled water + Tween-80
[7] = dose: 25.0 mg/kg/injection, schedule: Q01DX009 (ip), vehicle: distilled water + Tween-80
[8] = dose: 6.25 mg/kg/injection, schedule: Q01DX009 (ip), vehicle: distilled water + Tween-80
[9] = dose: 50.0 mg/kg/injection, schedule: Q01DX009 (ip), vehicle: distilled water + Tween-80
[10] = dose: 200.0 mg/kg/injection, schedule: Q04DX003 (ip), vehicle: saline with Tween-80
[11] = dose: 50.0 mg/kg/injection, schedule: Q01DX005 (ip), vehicle: Klucel (hydroxypropylcellulose) (HPC)
[12] = dose: 200.0 mg/kg/injection, schedule: Q01DX005 (ip), vehicle: Klucel (hydroxypropylcellulose) (HPC)

Measured: T/C

CN(C)P(=O)(N(C)C)N1CCCCCC1
inactive: [1] 102 % of control | [2] 106 % of control | [3] 94 % of control

COC(=O)CC1(C(=O)OC)C2CCCN2C2(C#N)c3ccccc3CCC12Br (centres undefined)
inactive: dose: 100.0 mg/kg/injection, schedule: Q01DX001 (ip), vehicle: saline 111 % of control | dose: 200.0 mg/kg/injection, schedule: Q01DX001 (ip), vehicle: saline 117 % of control | dose: 400.0 mg/kg/injection, schedule: Q01DX001 (ip), vehicle: saline 104 % of control

CN(C)CCCNc1ccc(NCCCN(C)C)c2c1C(=O)c1ccccc1C2=O
inactive: dose: 3.75 mg/kg/injection, schedule: Q01DX009 (ip), vehicle: saline 100 % of control | dose: 7.5 mg/kg/injection, schedule: Q01DX009 (ip), vehicle: saline 102 % of control | dose: 12.5 mg/kg/injection, schedule: Q01DX009 (ip), vehicle: water 104 % of control | dose: 15.0 mg/kg/injection, schedule: Q01DX009 (ip), vehicle: saline 102 % of control | dose: 25.0 mg/kg/injection, schedule: Q01DX009 (ip), vehicle: water 103 % of control | dose: 30.0 mg/kg/injection, schedule: Q01DX009 (ip), vehicle: saline 100 % of control | dose: 60.0 mg/kg/injection, schedule: Q01DX009 (ip), vehicle: saline 100 % of control

Fc1cccc(Cl)c1C(Nc1ncccn1)Nc1ncccn1
inactive: [4] 100 % of control | [5] 94 % of control | dose: 240.0 mg/kg/injection, schedule: Q01DX005 (ip), vehicle: Klucel (hydroxypropylcellulose) (HPC) 88 % of control

O=[N+]([O-])c1ccc(N2c3ccccc3SC2c2ccco2)c([N+](=O)[O-])c1 (centres undefined)
inactive: dose: 1.5 mg/kg/injection, schedule: Q01DX005 (ip), vehicle: saline with Tween-80 102 % of control | dose: 3.0 mg/kg/injection, schedule: Q01DX005 (ip), vehicle: saline with Tween-80 102 % of control | dose: 6.0 mg/kg/injection, schedule: Q01DX005 (ip), vehicle: saline with Tween-80 91 % of control

COC1=C(C)C(=O)c2[nH]ccc2C1=O
inactive: dose: 100.0 mg/kg/injection, schedule: Q04DX002 (ip), vehicle: saline with Tween-80 102 % of control

CCC[As](CCC)SC1OC(C2COC(C)(C)O2)C2OC(C)(C)OC12 (centres undefined)
inactive: [6] 100 % of control | [7] 110 % of control

O=C(CNC(=O)c1ccccc1)OC(C(=O)O)c1ccc(F)cc1 (centres undefined)
inactive: [1] 100 % of control | [2] 102 % of control | [3] 96 % of control

S=C=NCCCCCCCCCCCCN=C=S
inactive: dose: 3.12 mg/kg/injection, schedule: Q01DX009 (ip), vehicle: saline with Tween-80 112 % of control and 115 % of control | dose: 6.25 mg/kg/injection, schedule: Q01DX009 (ip), vehicle: saline with Tween-80 106 % of control and 120 % of control

COc1cccc(C=O)c1OC(=O)Oc1ccccc1
inactive: dose: 3.13 mg/kg/injection, schedule: Q01DX009 (ip), vehicle: distilled water + Tween-80 111 % of control and 95 % of control | [8] 111 % of control | [6] 100 % of control and 104 % of control | [7] 109 % of control and 113 % of control and 114 % of control | [9] 100 % of control and 103 % of control

CCOC(=O)c1cc(N)c(N2CCCC2)cc1Cl
inactive: dose: 90.0 mg/kg/injection, schedule: Q04DX003 (ip), vehicle: saline with Tween-80 100 % of control | dose: 133.0 mg/kg/injection, schedule: Q04DX003 (ip), vehicle: saline with Tween-80 100 % of control | [10] 90 % of control | dose: 300.0 mg/kg/injection, schedule: Q04DX003 (ip), vehicle: saline with Tween-80 95 % of control

CC1(C)OC(=O)N=C1c1ccc(Br)cc1
inactive: [4] 100 % of control | [5] 104 % of control

c1ccc(-c2nc[nH]c2-c2ccccc2)cc1
inactive: dose: 50.0 mg/kg/injection, schedule: Q01DX009 (ip), vehicle: Klucel (hydroxypropylcellulose) (HPC) 96 % of control | dose: 100.0 mg/kg/injection, schedule: Q01DX009 (ip), vehicle: Klucel (hydroxypropylcellulose) (HPC) 97 % of control | dose: 100.0 mg/kg/injection, schedule: Q01DX009 (ip), vehicle: suspension in saline 101 % of control | dose: 200.0 mg/kg/injection, schedule: Q01DX009 (ip), vehicle: Klucel (hydroxypropylcellulose) (HPC) 98 % of control | dose: 200.0 mg/kg/injection, schedule: Q01DX009 (ip), vehicle: suspension in saline 96 % of control | dose: 400.0 mg/kg/injection, schedule: Q01DX009 (ip), vehicle: Klucel (hydroxypropylcellulose) (HPC) 97 % of control

CSCCC(NC(=O)C(Cc1c[nH]c2ccccc12)NC(=O)CCNC(=O)OC(C)(C)C)C(=O)NC(CC(=O)O)C(=O)NC(Cc1ccccc1)C(N)=O (centres undefined)
inactive: [11] 98 % of control | dose: 100.0 mg/kg/injection, schedule: Q01DX005 (ip), vehicle: Klucel (hydroxypropylcellulose) (HPC) 100 % of control | [12] 97 % of control

COC(=O)c1ccc(-c2cc(Cl)c3cc(S(=O)(=O)F)ccc3n2)cc1
inactive: dose: 100.0 mg/kg/injection, schedule: Q04DX003 (ip), vehicle: saline with Tween-80 95 % of control | [10] 90 % of control | dose: 400.0 mg/kg/injection, schedule: Q04DX003 (ip), vehicle: saline with Tween-80 90 % of control

CC1(C)OCC(C2OC3OC(C)(C)OC3C2N=O)O1 (centres undefined)
inactive: dose: 94.5 mg/kg/injection, schedule: Q04DX002 (ip), vehicle: Klucel (hydroxypropylcellulose) (HPC) 103 % of control | dose: 189.0 mg/kg/injection, schedule: Q04DX002 (ip), vehicle: Klucel (hydroxypropylcellulose) (HPC) 96 % of control | dose: 378.0 mg/kg/injection, schedule: Q04DX002 (ip), vehicle: Klucel (hydroxypropylcellulose) (HPC) 90 % of control

CCCCCCCCCCCC[N+]1(CC)CCCCCC1
inactive: dose: 0.78 mg/kg/injection, schedule: Q01DX009 (ip), vehicle: saline 113 % of control | dose: 1.56 mg/kg/injection, schedule: Q01DX009 (ip), vehicle: saline 111 % of control | dose: 3.12 mg/kg/injection, schedule: Q01DX009 (ip), vehicle: saline 92 % of control

COC1(OC)C=NNc2nccn21
inactive: dose: 60.0 mg/kg/injection, schedule: Q01DX005 (ip), vehicle: saline with Tween-80 100 % of control | dose: 120.0 mg/kg/injection, schedule: Q01DX005 (ip), vehicle: saline with Tween-80 96 % of control | dose: 240.0 mg/kg/injection, schedule: Q01DX005 (ip), vehicle: saline with Tween-80 104 % of control

C=C(C)c1nc2c(=O)nc(N)nc-2n(O)c1C
inactive: dose: 37.5 mg/kg/injection, schedule: Q01DX009 (ip), vehicle: saline with Tween-80 99 % of control | dose: 150.0 mg/kg/injection, schedule: Q01DX009 (ip), vehicle: saline with Tween-80 108 % of control

CCn1c2ccc(N)cc2c2c(N)c(-n3cccc3)ccc21
inactive: dose: 50.0 mg/kg/injection, schedule: Q01DX005 (ip), vehicle: saline with Tween-80 100 % of control | dose: 100.0 mg/kg/injection, schedule: Q01DX005 (ip), vehicle: saline with Tween-80 100 % of control | dose: 200.0 mg/kg/injection, schedule: Q01DX005 (ip), vehicle: saline with Tween-80 100 % of control

CCN=NNc1ccc(C#N)cc1
inactive: [8] 104 % of control | [6] 109 % of control and 91 % of control | [7] 119 % of control and 97 % of control | [9] 100 % of control and 123 % of control | dose: 100.0 mg/kg/injection, schedule: Q01DX009 (ip), vehicle: distilled water + Tween-80 106 % of control

O=C(NC1CCCCC1NC(=O)C12CC3CC(CC(C3)C1)C2)C12CC3CC(CC(C3)C1)C2 (centres undefined)
inactive: dose: 6.0 mg/kg/injection, schedule: Q01DX005 (ip), vehicle: Klucel (hydroxypropylcellulose) (HPC) 95 % of control | dose: 12.0 mg/kg/injection, schedule: Q01DX005 (ip), vehicle: Klucel (hydroxypropylcellulose) (HPC) 88 % of control | [11] 88 % of control | [12] 92 % of control

O=c1c(N=Nc2ccccc2Cl)c(O)n(-c2ccccc2Cl)c(=S)n1-c1ccc(Cl)cc1
inactive: dose: 100.0 mg/kg/injection, schedule: Q01DX001 (ip), vehicle: Klucel (hydroxypropylcellulose) (HPC) 109 % of control | dose: 200.0 mg/kg/injection, schedule: Q01DX001 (ip), vehicle: Klucel (hydroxypropylcellulose) (HPC) 104 % of control | dose: 400.0 mg/kg/injection, schedule: Q01DX001 (ip), vehicle: Klucel (hydroxypropylcellulose) (HPC) 96 % of control

CC[N+](C)(CC)C1C(S(=O)(=O)c2ccccc2)CC1(C)C (centres undefined)
inactive: dose: 25.0 mg/kg/injection, schedule: Q01DX005 (ip), vehicle: saline 108 % of control | dose: 50.0 mg/kg/injection, schedule: Q01DX005 (ip), vehicle: saline 98 % of control | dose: 100.0 mg/kg/injection, schedule: Q01DX005 (ip), vehicle: saline 99 % of control
